Assays:
[1] = test system: winter wheat (Vershin variety); experiment: Winter wheat seed treatment with BHMPA salts: germinating power (length and mass of roots and sprouts); format: in vivo
Outline: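 Seeds (50 per Petri dish on two layers of filter paper) soaked 1 h in BHMPA or its Ca, Mg, Na, Co, Mn, Cu or Zn salts at 1·10^−6-1·10^−12%, with water controls. Germination energy read on day 4, germination on day 8 (wheat) or day 7 (rice, corn), as % means of four replicates. Germinating power taken as root and sprout length plus wet and dry mass per 100 seedlings.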

[2] = test system: corn (Krasnodar 385 MV variety); experiment: Corn seed treatment with BHMPA salts: germination energy and germination rate; format: in vivo
Outline: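 Corn, winter wheat and rice seeds (50 per dish, on filter paper) were soaked for 1 h in BHMPA or its metal salts at 1·10^−6-1·10^−12%, with water as control. Germination energy was read on day 4 and germination rate on day 8 for wheat and day 7 for rice and corn, following GOST 12038-84, as the mean of four replicates.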

[3] = comparative study, 1·10^−9% solution
[4] = comparative study vs Melaphen, 1·10^−10% solution

With `O=P([O-])(CO)CO.[Na+]` [Na-salt, Sodium BHMPA Salt] the “effectiveness on germinating power” value ([1]; 1·10^−6% and 1·10^−12% solutions) was “marginally effective”, the Length, root ([1]; 1·10^−6% solution) was 5.0 cm and the “Length, root, + % to control” value ([1]; 1·10^−6% solution) was −5.7%. The Length, sprout ([1]; 1·10^−6% solution) was 6.0 cm, the “Length, sprout, + % to control” value ([1]; 1·10^−6% solution) was −1.6% and the Mass, dry, root ([1]; 1·10^−6% solution) was 0.37 g/100 plantlings. The “Mass, dry, root, + % to control” value ([1]; 1·10^−6% solution) was −10%, the Mass, dry, sprout ([1]; 1·10^−6% solution) was 0.54 g/100 plantlings and the “Mass, dry, sprout, + % to control” value ([1]; 1·10^−6% solution) was −3.6%. The Mass, wet, root ([1]; 1·10^−6% solution) was 2.35 g/100 plantlings, the “Mass, wet, root, + % to control” value ([1]; 1·10^−6% solution) was −3.7% and the Mass, wet, sprout ([1]; 1·10^−6% solution) was 4.51 g/100 plantlings. For the same compound, the “Mass, wet, sprout, + % to control” value ([1]; 1·10^−6% solution) was −3.6%, the Length, root ([1]; 1·10^−7% solution) was 5.3 cm and the “Length, root, + % to control” value ([1]; 1·10^−7% solution) was 0%. The Length, sprout ([1]; 1·10^−7% solution) was 6.3 cm, the “Length, sprout, + % to control” value ([1]; 1·10^−7% solution) was 3.3% and the Mass, dry, root ([1]; 1·10^−7% solution) was 0.45 g/100 plantlings. The “Mass, dry, root, + % to control” value ([1]; 1·10^−7% solution) was 10%, the Mass, dry, sprout ([1]; 1·10^−7% solution) was 0.56 g/100 plantlings and the “Mass, dry, sprout, + % to control” value ([1]; 1·10^−7% solution) was 0%. The Mass, wet, root ([1]; 1·10^−7% solution) was 2.58 g/100 plantlings, the “Mass, wet, root, + % to control” value ([1]; 1·10^−7% solution) was 5.7% and the Mass, wet, sprout ([1]; 1·10^−7% solution) was 5.03 g/100 plantlings. The “Mass, wet, sprout, + % to control” value ([1]; 1·10^−7% solution) was 7.5%, the Length, root ([1]; 1·10^−8% solution) was 5.6 cm and the “Length, root, + % to control” value ([1]; 1·10^−8% solution) was 5.7%. The Length, sprout ([1]; 1·10^−8% solution) was 6.7 cm, the “Length, sprout, + % to control” value ([1]; 1·10^−8% solution) was 10% and the Mass, dry, root ([1]; 1·10^−8% solution) was 0.47 g/100 plantlings. For the same compound, the “Mass, dry, root, + % to control” value ([1]; 1·10^−8% solution) was 14.6%, the Mass, dry, sprout ([1]; 1·10^−8% solution) was 0.63 g/100 plantlings and the “Mass, dry, sprout, + % to control” value ([1]; 1·10^−8% solution) was 12.5%. For the same compound, the Mass, wet, root ([1]; 1·10^−8% solution) was 2.73 g/100 plantlings, the “Mass, wet, root, + % to control” value ([1]; 1·10^−8% solution) was 12% and the Mass, wet, sprout ([1]; 1·10^−8% solution) was 5.37 g/100 plantlings. The “Mass, wet, sprout, + % to control” value ([1]; 1·10^−8% solution) was 15%, the Length, root ([1]; 1·10^−9% solution) was 5.7 cm and the “Length, root, + % to control” value ([1]; 1·10^−9% solution) was 7.5%. For the same compound, the Length, sprout ([1]; 1·10^−9% solution) was 6.9 cm, the “Length, sprout, + % to control” value ([1]; 1·10^−9% solution) was 13% and the Mass, dry, root ([1]; 1·10^−9% solution) was 0.56 g/100 plantlings. For the same compound, the “Mass, dry, root, + % to control” value ([1]; 1·10^−9% solution) was 36.5%, the Mass, dry, sprout ([1]; 1·10^−9% solution) was 0.69 g/100 plantlings and the “Mass, dry, sprout, + % to control” value ([1]; 1·10^−9% solution) was 23%. For the same compound, the Mass, wet, root ([1]; 1·10^−9% solution) was 3.21 g/100 plantlings, the “Mass, wet, root, + % to control” value ([1]; 1·10^−9% solution) was 31.5% and the Mass, wet, sprout ([1]; 1·10^−9% solution) was 5.41 g/100 plantlings. The “Mass, wet, sprout, + % to control” value ([1]; 1·10^−9% solution) was 15.6%, the Length, root ([1]; 1·10^−10% solution) was 5.6 cm and the “Length, root, + % to control” value ([1]; 1·10^−10% solution) was 5.7%. For the same compound, the Length, sprout ([1]; 1·10^−10% solution) was 6.5 cm, the “Length, sprout, + % to control” value ([1]; 1·10^−10% solution) was 6.5% and the Mass, dry, root ([1]; 1·10^−10% solution) was 0.46 g/100 plantlings. For the same compound, the “Mass, dry, root, + % to control” value ([1]; 1·10^−10% solution) was 12%, the Mass, dry, sprout ([1]; 1·10^−10% solution) was 0.61 g/100 plantlings and the “Mass, dry, sprout, + % to control” value ([1]; 1·10^−10% solution) was 9%. For the same compound, the Mass, wet, root ([1]; 1·10^−10% solution) was 2.66 g/100 plantlings, the “Mass, wet, root, + % to control” value ([1]; 1·10^−10% solution) was 9% and the Mass, wet, sprout ([1]; 1·10^−10% solution) was 5.33 g/100 plantlings. The “Mass, wet, sprout, + % to control” value ([1]; 1·10^−10% solution) was 14%, the Length, root ([1]; 1·10^−11% solution) was 5.5 cm and the “Length, root, + % to control” value ([1]; 1·10^−11% solution) was 3.8%. For the same compound, the Length, sprout ([1]; 1·10^−11% solution) was 6.4 cm, the “Length, sprout, + % to control” value ([1]; 1·10^−11% solution) was 5% and the Mass, dry, root ([1]; 1·10^−11% solution) was 0.43 g/100 plantlings. For the same compound, the “Mass, dry, root, + % to control” value ([1]; 1·10^−11% solution) was 5%, the Mass, dry, sprout ([1]; 1·10^−11% solution) was 0.60 g/100 plantlings and the “Mass, dry, sprout, + % to control” value ([1]; 1·10^−11% solution) was 7%. For the same compound, the Mass, wet, root ([1]; 1·10^−11% solution) was 2.57 g/100 plantlings, the “Mass, wet, root, + % to control” value ([1]; 1·10^−11% solution) was 5.3% and the Mass, wet, sprout ([1]; 1·10^−11% solution) was 5.11 g/100 plantlings. The “Mass, wet, sprout, + % to control” value ([1]; 1·10^−11% solution) was 9%, the Length, root ([1]; 1·10^−12% solution) was 5.4 cm and the “Length, root, + % to control” value ([1]; 1·10^−12% solution) was 2%. For the same compound, the Length, sprout ([1]; 1·10^−12% solution) was 6.3 cm, the “Length, sprout, + % to control” value ([1]; 1·10^−12% solution) was 3.3% and the Mass, dry, root ([1]; 1·10^−12% solution) was 0.42 g/100 plantlings. For the same compound, the “Mass, dry, root, + % to control” value ([1]; 1·10^−12% solution) was 2%, the Mass, dry, sprout ([1]; 1·10^−12% solution) was 0.58 g/100 plantlings and the “Mass, dry, sprout, + % to control” value ([1]; 1·10^−12% solution) was 3.6%. The Mass, wet, root ([1]; 1·10^−12% solution) was 2.41 g/100 plantlings, the “Mass, wet, root, + % to control” value ([1]; 1·10^−12% solution) was −1.2% and the Mass, wet, sprout ([1]; 1·10^−12% solution) was 5.03 g/100 plantlings. The “Mass, wet, sprout, + % to control” value ([1]; 1·10^−12% solution) was 7.5%, the Length, root [1, 3] was 8.7 cm and the “Length, root, + % to control” value [1, 3] was 0%. The Length, sprout [1, 3] was 6.4 cm, the “Length, sprout, + % to control” value [1, 3] was 3% and the Mass, dry, root [1, 3] was 0.64 g/100 plantlings. For the same compound, the “Mass, dry, root, + % to control” value [1, 3] was 3%, the Mass, dry, sprout [1, 3] was 0.53 g/100 plantlings and the “Mass, dry, sprout, + % to control” value [1, 3] was 4%. For the same compound, the Mass, wet, root [1, 3] was 4.19 g/100 plantlings, the “Mass, wet, root, + % to control” value [1, 3] was 16% and the Mass, wet, sprout [1, 3] was 4.73 g/100 plantlings. The “Mass, wet, sprout, + % to control” value [1, 3] was 19%, the Germination energy ([2]; 1·10^−6% solution) was 75.7% and the Germination rate ([2]; 1·10^−6% solution) was 78.3%. It also gave a Germination energy ([2]; 1·10^−7% solution) of 78.0%, a Germination rate ([2]; 1·10^−7% solution) of 81.8% and a Germination energy ([2]; 1·10^−8% solution) of 84.8%. It also gave a Germination rate ([2]; 1·10^−8% solution) of 87.5%, a Germination energy ([2]; 1·10^−9% solution) of 87.7% and a Germination rate ([2]; 1·10^−9% solution) of 91.7%. For the same compound, the Germination energy ([2]; 1·10^−10% solution) was 89.7%, the Germination rate ([2]; 1·10^−10% solution) was 93.0% and the Germination energy ([2]; 1·10^−11% solution) was 86.8%. It also gave a Germination rate ([2]; 1·10^−11% solution) of 89.5%, a Germination energy ([2]; 1·10^−12% solution) of 82.0% and a Germination rate ([2]; 1·10^−12% solution) of 85.5%. For the same compound, the Germination energy [2, 4] was 85.7% and the Germination rate [2, 4] was 94.0%.

From US10781224B2, “Bis(oxymethyl)phosphinic acid and biogenic metal salts thereof as regulators of plant growth and development” (priority 2016, dated 2020)
